Assay results published in US10005767B2, “Compositions and methods for inhibition of the JAK pathway” (Rigel Pharmaceuticals, Inc., priority 2009, dated 2018).
Counter-ions that a name gives are not always drawn. Like-named read-outs stand apart in the source and are kept apart here.

Tested on: human primary T-cells, IL-2 stimulated proliferation (JAK-1 and JAK-3 dependent; reported as JAK3 activity)
Experiment: Human primary T-cell proliferation stimulated by IL-2 (Example 3)
Type: cell-based
Details: tested under conditions described in Example 3 (IL-2 stimulated human primary T-cell proliferation), read-out: ability to inhibit JAK3 activity, IC50 range (Table V)
Source text: The activity of the compounds described herein can further be characterized by assaying the effect of the 2,4-pyrimidinediamine compounds described herein on the proliferative response of primary human T-cells. In this assay, primary human T-cells derived from peripheral blood and pre-activated through stimulation of the T-cell receptor and CD28, proliferate in culture in response to the cytokine Interleukin-2 (IL-2). This proliferative response is dependent on the activation of JAK1 and JAK3 tyrosine kinases, which phosphorylate and activate the transcription factor Stat-5. The primary human T-cells are incubated with the 2,4-pyrimidinediamine compounds in the presence of IL-2 for 72 hours, and at the assay endpoint intracellular ATP concentrations are measured to assess cell viability. A reduction in cell proliferation compared to control conditions is indicative of inhibition of the JAK kinase pathway.
Primary human T-cells derived from peripheral blood and pre-activated through stimulation of the T-cell receptor and CD28, proliferate in vitro in response to the cytokine Interleukin-2 (IL-2). This proliferative response is dependent on the activation of JAK-1 and JAK-3 tyrosine kinases, which phosphorylate and activate the transcription factor Stat-5.
Human primary T cells were prepared as follows. […] The lymphocytes at the serum: ficoll interface were recovered and washed twice with 5 volumes of PBS. […] The primary T-cells were stimulated for 3-4 days, then transferred to a fresh flask and maintained in RPMI with 10% FBS and 40 U/mL IL-2.
The day prior to the assay set up, primary T-cells were centrifuged and resuspended in fresh RPMI with 10% FBS but without IL-2 and starved overnight. For the assay, the primary T-cells were centrifuged and resuspended Yssel's medium at 2×10^6 cells/mL. 50 μL of cell suspension containing 80 U/mL IL-2 was added to each well of a flat bottom 96 well black plate. For the unstimulated control, IL-2 was omitted from the last column on the plate. […] 50 μL of 2× compound was added per well in duplicate and the cells were allowed to proliferate for 72 hours at 37° C.
Proliferation was measured using CellTiter-Glo® Luminescent Cell Viability Assay (Promega), which determines the number of viable cells in culture based on quantitation of the ATP present, as an indicator of metabolically active cells. The substrate was thawed and allowed to come to ambient temperature. After mixing the Cell Titer-Glo reagent and diluent together, 100 μL was added to each well. The plates were mixed on an orbital shaker for two minutes to induce lysis and incubated at ambient temperature for an additional ten minutes to allow the signal to equilibrate.
The compound designations in Table V are consistent with those of Tables I-IV above.

SMILES	IC50 [nM]	IC50 (Homo sapiens, T-cell) [nM]
O=c1[nH]c2ccc(Nc3nc(Nc4cccc(S(=O)(=O)N5CCOCC5)c4)ncc3F)cc2[nH]1 [Compound I-32, N4-(benzimidazolin-2-on-5-yl)-N2-(3-(morpholinosulfonyl)phenyl)-5-fluoropyrimidine-2,4-diamine]	500 to 5000	–
Cc1cnc(Nc2cccc(S(C)(=O)=O)c2)nc1Nc1ccc2oc(=O)n(COP(=O)(O)O)c2c1 [Compound I-33, N4-(3-phosphorylmethylbenzo[d]oxazol-2(3H)-on-5-yl)-N2-((3-methylsulfonyl)phenyl)-5-methylpyrimidine-2,4-diamine]	< 500	–
Cc1cnc(Nc2cccc(S(N)(=O)=O)c2)nc1Nc1ccc2c(c1)n(C)c(=O)n2C [Compound I-34, N4-(1,3-dimethylbenzimidazolin-2-on-5-yl)-N2-((3-aminosulfonyl)phenyl)-5-methylpyrimidine-2,4-diamine]	< 500	–
Cc1cnc(Nc2ccc(S(N)(=O)=O)cc2)nc1Nc1ccc2c(c1)n(C)c(=O)n2C [Compound I-35, N4-(1,3-dimethylbenzimidazolin-2-on-5-yl)-N2-((4-aminosulfonyl)phenyl)-5-methylpyrimidine-2,4-diamine]	> 10000	–
Cc1cnc(Nc2cccc(S(C)(=O)=O)c2)nc1Nc1ccc2c(c1)n(C)c(=O)n2C [Compound I-36, N4-(1,3-dimethylbenzimidazolin-2-on-5-yl)-N2-((3-methylsulfonyl)phenyl)-5-methylpyrimidine-2,4-diamine]	< 500	–
Cc1cnc(Nc2cccc(NS(C)(=O)=O)c2)nc1Nc1ccc2c(c1)n(C)c(=O)n2C [Compound I-37, N4-(1,3-dimethylbenzimidazolin-2-on-5-yl)-N2-((3-methylsulfonylamino)phenyl)-5-methylpyrimidine-2,4-diamine]	< 500	–
Cc1cnc(Nc2ccc(NS(C)(=O)=O)cc2)nc1Nc1ccc2c(c1)n(C)c(=O)n2C [Compound I-38, N4-(1,3-dimethylbenzimidazolin-2-on-5-yl)-N2-((4-methylsulfonylamino)phenyl)-5-methylpyrimidine-2,4-diamine]	< 500	–
Cn1c(=O)n(C)c2cc(Nc3nc(Nc4cccc(S(N)(=O)=O)c4)ncc3F)ccc21 [Compound I-39, N4-(1,3-dimethylbenzimidazolin-2-on-5-yl)-N2-((3-aminosulfonyl)phenyl)-5-fluoropyrimidine-2,4-diamine]	< 500	–
Cn1c(=O)n(C)c2cc(Nc3nc(Nc4ccc(S(N)(=O)=O)cc4)ncc3F)ccc21 [Compound I-40, N4-(1,3-dimethylbenzimidazolin-2-on-5-yl)-N2-((4-aminosulfonyl)phenyl)-5-fluoropyrimidine-2,4-diamine]	> 10000	–
Cn1c(=O)n(C)c2cc(Nc3nc(Nc4cccc(S(C)(=O)=O)c4)ncc3F)ccc21 [Compound I-41, N4-(1,3-dimethylbenzimidazolin-2-on-5-yl)-N2-((3-methylsulfonyl)phenyl)-5-fluoropyrimidine-2,4-diamine]	500 to 5000	–
Cn1c(=O)n(C)c2cc(Nc3nc(Nc4cccc(NS(C)(=O)=O)c4)ncc3F)ccc21 [Compound I-42, N4-(1,3-dimethylbenzimidazolin-2-on-5-yl)-N2-((3-methylsulfonylamino)phenyl)-5-fluoropyrimidine-2,4-diamine]	500 to 5000	–
Cn1c(=O)n(C)c2cc(Nc3nc(Nc4ccc(NS(C)(=O)=O)cc4)ncc3F)ccc21 [Compound I-43, N4-(1,3-dimethylbenzimidazolin-2-on-5-yl)-N2-((4-methylsulfonylamino)phenyl)-5-fluoropyrimidine-2,4-diamine]	500 to 5000	–
N#Cc1cccc(Nc2ncc(F)c(Nc3ccc4oc(=O)[nH]c4c3)n2)c1 [Compound I-44, N4-(benzo[d]oxazol-2(3H)-on-5-yl)-N2-(3-cyanophenyl)-5-fluoropyrimidine-2,4-diamine]	–	< 500
N#Cc1ccc(Nc2ncc(F)c(Nc3ccc4oc(=O)[nH]c4c3)n2)cc1 [Compound I-45, N4-(benzo[d]oxazol-2(3H)-on-5-yl)-N2-(4-cyanophenyl)-5-fluoropyrimidine-2,4-diamine]	–	< 500
Cc1cnc(Nc2cccc(N3CCOCC3)c2)nc1Nc1ccc2oc(=O)[nH]c2c1 [Compound I-46, N4-(benzo[d]oxazol-2(3H)-on-5-yl)-N2-((3-morpholinyl)phenyl)-5-methylpyrimidine-2,4-diamine]	< 500	–
O=c1[nH]c2cc(Nc3nc(Nc4cccc(N5CCOCC5)c4)ncc3F)ccc2o1 [Compound I-47, N4-(benzo[d]oxazol-2(3H)-on-5-yl)-N2-((3-morpholinyl)phenyl)-5-fluoropyrimidine-2,4-diamine]	< 500	–

SMILES	IC50 [nM]	IC50 (Homo sapiens, T-cell) [nM]
Cc1cnc(Nc2cccc(N3CCOCC3)c2)nc1Nc1ccc2[nH]c(=O)oc2c1 [Compound I-48, N4-(benzo[d]oxazol-2(3H)-on-6-yl)-N2-((3-morpholinyl)phenyl)-5-methylpyrimidine-2,4-diamine]	< 500	–
Cc1cnc(Nc2cccc(N3CCOCC3)c2)nc1Nc1ccc2c(c1)oc(=O)n2C [Compound I-49, N4-(3-methylbenzo[d]oxazol-2(3H)-on-6-yl)-N2-((3-morpholinyl)phenyl)-5-methylpyrimidine-2,4-diamine]	< 500	–
Cc1cnc(Nc2ccc(NS(C)(=O)=O)cc2)nc1Nc1ccc2[nH]c(=O)[nH]c2c1 [Compound I-50, N2-(4-(methylsulfonylamino)phenyl)-N4-(1H-benzo[d]imidazol-2(3H)-on-5-yl)-5-methylpyrimidine-2,4-diamine]	–	< 500
CS(=O)(=O)Nc1ccc(Nc2ncc(F)c(Nc3ccc4[nH]c(=O)[nH]c4c3)n2)cc1 [Compound I-51, N2-(4-(methylsulfonylamino)phenyl)-N4-(1H-benzo[d]imidazol-2(3H)-on-5-yl)-5-fluoropyrimidine-2,4-diamine]	–	500 to 5000
Cc1cnc(Nc2ccc(NS(C)(=O)=O)cc2)nc1Nc1ccc2oc(=O)[nH]c2c1 [Compound I-52]	< 500	–
CS(=O)(=O)Nc1ccc(Nc2ncc(F)c(Nc3ccc4oc(=O)[nH]c4c3)n2)cc1 [Compound I-53]	< 500	–
Cc1cnc(Nc2cccc(NS(C)(=O)=O)c2)nc1Nc1ccc2[nH]c(=O)[nH]c2c1 [Compound I-54, N2-(3-(methylsulfonylamino)phenyl)-N4-(1H-benzo[d]imidazol-2(3H)-on-5-yl)-5-methylpyrimidine-2,4-diamine]	–	< 500
Cc1cnc(Nc2cccc(NS(C)(=O)=O)c2)nc1Nc1ccc2oc(=O)[nH]c2c1 [Compound I-55, N4-(benzo[d]oxazol-2(3H)-on-5-yl)-N2-(3-methylsulfonylamino)phenyl)-5-methylpyrimidine-2,4-diamine formate salt]	< 500	–
CS(=O)(=O)Nc1cccc(Nc2ncc(F)c(Nc3ccc4oc(=O)[nH]c4c3)n2)c1 [Compound I-56]	< 500	–
Cn1c(=O)oc2cc(Nc3nc(Nc4cccc(S(N)(=O)=O)c4)ncc3F)ccc21 [Compound I-57, N2-((3-aminosulfonyl)phenyl)-N4-(3-methyl-2-oxo-2,3-dihydrobenzo[d]oxazol-6-yl)-5-fluoropyrimidine-2,4-diamine]	< 500	–
Cn1c(=O)oc2cc(Nc3nc(Nc4ccc(S(N)(=O)=O)cc4)ncc3F)ccc21 [Compound I-58]	> 10000	–
Cn1c(=O)oc2cc(Nc3nc(Nc4cccc(S(C)(=O)=O)c4)ncc3F)ccc21 [Compound I-59, N2-((3-methylsulfonyl)phenyl)-N4-(3-methyl-2-oxo-2,3-dihydrobenzo[d]oxazol-6-yl)-5-fluoropyrimidine-2,4-diamine]	< 500	–
Cn1c(=O)oc2cc(Nc3nc(Nc4ccc(S(C)(=O)=O)cc4)ncc3F)ccc21 [Compound I-60]	> 10000	–
Cn1c(=O)oc2cc(Nc3nc(Nc4cccc(NS(C)(=O)=O)c4)ncc3F)ccc21 [Compound I-61, N2-((3-methylsulfonylamino)phenyl)-N4-(3-methyl-2-oxo-2,3-dihydrobenzo[d]oxazol-6-yl)-5-fluoropyrimidine-2,4-diamine]	< 500	–
Cn1c(=O)oc2cc(Nc3nc(Nc4ccc(NS(C)(=O)=O)cc4)ncc3F)ccc21 [Compound I-62, N2-((4-methylsulfonylamino)phenyl)-N4-(3-methyl-2-oxo-2,3-dihydrobenzo[d]oxazol-6-yl)-5-fluoropyrimidine-2,4-diamine]	500 to 5000	–
